From patent publication US5098706A, “Juvenile hormone esterase for insect control” (The Regents of the University of California, priority 1988, dated 1992)

Tests used:
[1] = test system: tomato hornworm larvae; experiment: Prevention of cuticular blackening in tomato hornworm larvae injected with juvenile hormone esterase; format: in vivo, Manduca sexta; details: third stadium larvae injected with 9 μg (148 pmoles) juvenile hormone esterase, then 0.17 nmoles epofenonane
Description: Tomato hornworm larvae, obtained from Zoecon Corp., were injected with the affinity purified juvenile hormone esterase obtained from Example I. Injections were performed at 10 hours after lights on the day before ecdysis to the third stadium. Larvae were reared on a 14L"10D photoperiod. Injections were made in 1.5 μl of buffer cocktail containing 3-10 μg (49-164 pmoles) of esterase. Total protein in each injection was kept constant at 10 μg with […] bovine serum albumen (BSA). Control injections in buffer contained 10 μg BSA or 12 μg larval blood protein from which the esterase was removed.
FIG. 2 illustrates third stadium tomato hornworm larvae after injection with 9 μg (148 pmoles) of juvenile hormone esterase as in FIG. 1, but then treated with 17 nmoles epofenonane (left), 0.17 nmoles epofenonane (middle) or no epofenonane (right). […] Epofenonane is a juvenile hormone chemical mimic, although it is not a substrate for juvenile hormone esterase. Thus, FIG. 2 illustrates that even a dose of juvenile hormone which is too low completely to prevent an anti-juvenile hormone effect can still effect a localized response.

[2] = molecular target: T1, juvenile hormone hemolymph carrier protein (H. virescens) (Heliothis virescens, UniProt Q25175); experiment: Binding of juvenile hormone by the hemolymph carrier protein; details: juvenile hormone bound by carrier protein
T1 construct: preparation not described in the excerpts
T1 sequence (Q25175 19-242): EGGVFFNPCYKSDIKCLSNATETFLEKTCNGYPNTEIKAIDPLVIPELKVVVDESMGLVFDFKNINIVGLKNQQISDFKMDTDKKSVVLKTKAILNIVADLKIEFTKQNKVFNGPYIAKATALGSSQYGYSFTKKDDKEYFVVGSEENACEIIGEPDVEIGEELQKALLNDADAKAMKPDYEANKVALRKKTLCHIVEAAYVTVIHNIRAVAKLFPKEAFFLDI
Excerpt: (§1) Juvenile hormone esterase is biochemically interesting in that it is an extraordinarily efficient enzyme. The very low Km ^31 6×10^-8 M of juvenile hormone esterase, its high kcat, and the low molarity of the enzyme even in the last larval stadium indicate that production of even small amounts of juvenile hormone esterase (<0.1% of total protein) should overpower the ability of the corpora allata to make juvenile hormone. This destruction of the juvenile hormone will be […] by the juvenile hormone hemolymph carrier protein.

[3] = molecular target: T2, juvenile hormone esterase (Heliothis virescens, UniProt P12992); experiment: Juvenile hormone esterase kinetics for juvenile hormone; format: biochemical; details: substrate juvenile hormone
T2 sequence (P12992 20-564): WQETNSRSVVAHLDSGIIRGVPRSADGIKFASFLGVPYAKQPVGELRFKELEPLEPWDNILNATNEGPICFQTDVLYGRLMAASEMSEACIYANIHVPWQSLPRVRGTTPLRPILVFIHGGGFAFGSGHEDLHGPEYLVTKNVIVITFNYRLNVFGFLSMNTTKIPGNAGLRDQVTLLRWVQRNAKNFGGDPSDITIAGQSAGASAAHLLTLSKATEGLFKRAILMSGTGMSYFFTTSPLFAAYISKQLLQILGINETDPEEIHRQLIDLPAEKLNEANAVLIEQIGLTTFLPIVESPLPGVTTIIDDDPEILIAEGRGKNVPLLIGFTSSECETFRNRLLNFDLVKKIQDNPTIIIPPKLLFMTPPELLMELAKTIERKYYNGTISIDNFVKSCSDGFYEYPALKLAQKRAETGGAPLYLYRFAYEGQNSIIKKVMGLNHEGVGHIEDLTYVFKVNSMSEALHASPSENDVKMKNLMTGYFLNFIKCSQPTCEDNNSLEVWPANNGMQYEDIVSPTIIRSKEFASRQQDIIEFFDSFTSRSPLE
Excerpt: as §1

## CCc1ccc(OCCC(CC)CCC2OC2(C)CC)cc1 (stereo not drawn) [epofenonane]
[1]
  prevention of blackening of the cuticle: not sufficient to prevent completely the blackening of the cuticle

## juvenile hormone
[2]
  Kd: 610 nM
[3]
  Km: 0.06 µM
